One may read the IC50 as the concentration needed to halve the response being measured. A higher IC50 goes with a need for much substance. As usually defined, the inhibition is the drop in the measured response relative to a control, in per cent. By Hill coefficient is commonly meant the slope factor of the fitted curve.

Data set [1] deals with T1, human neuronal glycine receptor α1 (Homo sapiens, UniProt P23415).
T1 sequence (P23415 29-457): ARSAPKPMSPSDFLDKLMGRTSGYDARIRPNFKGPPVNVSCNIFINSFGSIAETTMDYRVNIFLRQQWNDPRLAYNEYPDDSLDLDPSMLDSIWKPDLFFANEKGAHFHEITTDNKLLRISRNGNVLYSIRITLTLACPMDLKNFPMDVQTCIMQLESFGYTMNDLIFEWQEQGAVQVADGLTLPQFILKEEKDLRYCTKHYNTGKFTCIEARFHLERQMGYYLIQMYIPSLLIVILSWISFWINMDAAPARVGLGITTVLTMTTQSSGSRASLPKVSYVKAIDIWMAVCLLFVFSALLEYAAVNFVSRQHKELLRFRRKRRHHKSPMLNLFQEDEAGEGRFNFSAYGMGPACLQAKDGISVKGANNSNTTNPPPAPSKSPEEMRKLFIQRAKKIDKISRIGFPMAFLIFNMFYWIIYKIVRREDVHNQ
The experiment in a line: Two-electrode voltage clamp of glycine-evoked current. The class given is cell-based.

Data set [2] addresses T2, glycine receptor α1 D130A (Homo sapiens, UniProt P23415, D142A).
T2 sequence (P23415 29-457 D142A): T1 sequence (P23415 29-457) with D114A
The class given is cell-based.

A further data set has as its target T3, 5-HT3a (Homo sapiens, UniProt P46098).
T3 sequence (P46098 24-478): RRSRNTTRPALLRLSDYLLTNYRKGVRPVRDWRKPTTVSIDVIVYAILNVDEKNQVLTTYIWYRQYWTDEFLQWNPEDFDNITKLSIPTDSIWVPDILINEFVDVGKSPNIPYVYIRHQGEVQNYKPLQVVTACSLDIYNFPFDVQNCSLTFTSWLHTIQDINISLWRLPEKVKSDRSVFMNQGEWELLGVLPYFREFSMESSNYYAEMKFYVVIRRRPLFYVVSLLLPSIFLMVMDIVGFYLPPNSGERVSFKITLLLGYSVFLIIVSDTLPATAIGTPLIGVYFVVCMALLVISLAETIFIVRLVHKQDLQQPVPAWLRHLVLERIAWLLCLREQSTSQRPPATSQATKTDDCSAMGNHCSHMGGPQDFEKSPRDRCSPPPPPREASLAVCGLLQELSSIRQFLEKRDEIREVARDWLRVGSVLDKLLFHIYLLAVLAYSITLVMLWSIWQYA
The experiment in a line: Interaction with ligand-gated channel 5-HT3a.

For data set [3] the following is noted: cited from earlier work.
For data set [4], the target named is T4, glycine receptor α1 F124A + D130A (Homo sapiens, UniProt P23415, D142A/F136A).
T4 sequence (P23415 29-457 F136A/D142A): T1 sequence (P23415 29-457) with F108A, D114A
The class given is cell-based. As to conditions: double mutant α1 F124A and D130A.

Data set [5] deals with T5, glycine receptor α1 F124A (Homo sapiens, UniProt P23415, F136A).
T5 sequence (P23415 29-457 F136A): T1 sequence (P23415 29-457) with F108A
The class given is cell-based.

[6] abbreviates: glycine concentration-response in presence of 10 µM EG.
The mark [7] stands for this setting: glycine concentration-response in presence of 100 µM EG.

Molecules are shown by their SMILES. Positions count from the first letter of the chain named.

Turning to `NCC(=O)O` [glycine], the “nH (Hill's coefficient) of glycine-induced current” value in data set [1] (Control, absence of ergotamine) is listed as 1.1 ± 0.3. For the same compound, in data set [1] (Control, absence of ergotamine, glycine 0.3 to 100 µM, −80 mV), the “Imax (maximum response) of glycine-induced current” value is given as 99.6 ± 2.4.
As for `CN1C[C@H](C(=O)N[C@]2(C)O[C@@]3(O)[C@@H]4CCCN4C(=O)[C@H](Cc4ccccc4)N3C2=O)C=C2c3cccc4[nH]cc(c34)C[C@H]21` [ergotamine], the results for the IC50 in data set [2], in data set [1] and in data set [5] were 28.1 ± 9.7 µM, 5.7 ± 0.7 µM and 25.7 ± 2.9 µM, respectively. Also, the “Imax (maximum response) of ergotamine inhibition of glycine-evoked current” value was found to be 32.1 ± 8.8 in data set [2] (α1 D130A); 91.5 ± 2.2 in data set [1] (α1 wild, 100 µM glycine, −80 mV); 42.4 ± 1.5 in data set [5] (α1 F124A). For the same compound, the “nH (Hill's coefficient)” value was determined as 1.1 ± 0.3 in data set [2] (α1 D130A), 1.2 ± 0.2 in data set [1] (α1 wild) and 1.3 ± 0.1 in data set [5] (α1 F124A). For the same compound, in data set [1] (application of ergotamine and glycine or glycine alone, voltage ramp −100 to +60 mV), the reversal potential entry is recorded as “approximately 0 mV”. Besides, the “inhibition of IGly in voltage ramp” value in data set [1] (ergotamine 10 µM + 100 µM glycine, at +60 mV) amounted to 42.3 ± 6.2%; in data set [1] (ergotamine 10 µM + 100 µM glycine, at −100 mV), 39.9 ± 4.8%; in data set [1] (ergotamine 100 µM + 100 µM glycine, at +60 mV), 74.6 ± 5.4%; in data set [1] (ergotamine 100 µM + 100 µM glycine, at −100 mV), 71.9 ± 4.1%. Moreover, the “voltage dependence of inhibition (current-voltage relationship)” value in data set [1] (ergotamine 10 or 100 µM + 100 µM glycine, ramps −100 to +60 mV) is “voltage insensitive”. The “reversibility of inhibition of IGly” value in data set [1] (ergotamine and glycine co-application, washout) was “reversible”. In data set [1] (glycine 0–100 µM with or without ergotamine 10 or 100 µM), the “relation between glycine and ergotamine (competition test)” value is reported as “non-competitive”. For the same compound, the “Imax (maximum response) of glycine-induced current” value stood at 53.9 ± 2.3 in data set [1] (setting [6]) and 31.7 ± 0.5 in data set [1] (setting [7]). For the same compound, the figures for the “nH (Hill's coefficient) of glycine-induced current” value in data set [1] (setting [6]) and in data set [1] (setting [7]) were 1.2 ± 0.2 and 0.9 ± 0.2, respectively. Moreover, in data set [1] (prolonged glycine application), the effect on desensitization result is reported as “did not alter desensitization kinetics or induce desensitization”. The inhibition at 10 µM in data set [1] (read-out: inhibition of the current stimulated by 100 µM glycine) was determined as 59.8 ± 2.9%. Further, the “effect of ergotamine alone on IGly” value in data set [1] (various concentrations of ergotamine without glycine, holding potential −80 mV) is “no effect”. The “interaction with 5-HT3a” value at 5-HT3a was “does not interact”. Further, in data set [3], the “penetration across the blood-brain barrier” value is “relatively poor penetration”. For the same compound, the Hill coefficient in data set [4] was found to be 1.9 ± 0.6.
